In patent publication US12312419B2, “Hemiasterlin derivative having cysteine residue” (priority 2019, dated 2025):

Tested on: Karpas-299 cells
Assay: Cellular toxicity test (1), CellTiter-Glo cell viability
Assay type: cell-based, human
Details: for IC50: Homo sapiens, 96 h, Karpas-299, cultured 4 days, cell viability
Method: Karpas-299 cells (European Collection of Authenticated Cell Cultures, hereinafter, ECACC), which are human lymphoma cell lines, were cultured in RPMI 1640 (GIBCO) containing 10% fetal bovine serum (MP Biomedicals) (hereinafter, referred to as the “culture medium”). Cells were prepared to be 2×10^5 cells/mL in the culture medium, and were added to a 96 well microplate for cell culturing in an amount of 50 μL for each well. Compounds of Examples or the Comparative Example compound 4 times diluted with the culture medium in 8 stages were added to the microplate in an amount of 50 μL for each well. These were cultured at 37° C. under 5% CO2 for 4 days. After culturing, the microplate was taken out from the incubator, and was left at rest at room temperature for 10 minutes. To each well, 50 μL of CellTiter-Glo Luminescent Cell Viability Assay (Promega) was added, and the resultant mixture was stirred. This mixture was incubated at a dark place for 20 minutes. Using a microplate luminometer, luminescence at each well was measured, thereby calculating the cell viability. From the value of the cell viability, the IC50 value was calculated.
The IC50 value was calculated by the following formula: IC50(nM)=antilog(LOG10(a/b)×(e−d)/(c−d)+LOG10b) • a: concentration a of test substance • b: concentration b of test substance • c: cell viability upon adding test substance with concentration a • d: cell viability upon adding test substance with concentration b • e: intermediate value between maximum and minimum among cell viabilities upon adding test substances with different concentrations (a and b are concentrations crossing the cell viability e, and a>b is indicated).
The cell viability at each concentration was calculated by the following formula: Cell Viability (%)=a′/b′×100 • a′: mean value of luminescence amount of wells to which test substance was added (n=6) • b′: mean value of luminescence amount of wells to which test substance was not added (n=6) • (n represents the number of evaluations performed per test substance concentration).

Structure (SMILES) | IC50 [nM] | cellular toxicity to Karpas-299 cells (in words, summary of Table 17)
CN[C@H](C(=O)N[C@H](C(=O)N(C)[C@H](/C=C(\C)C(=O)N[C@H](CCC(=O)NCCN1C(=O)CC(SC[C@H](N)C(=O)O)C1=O)C(=O)O)C(C)C)C(C)(C)C)C(C)(C)c1cn(C)c2ccccc12 (stereo partly drawn) [Example MM4] | 289 | –
CN[C@H](C(=O)N[C@H](C(=O)N(C)[C@H](/C=C(\C)C(=O)N[C@H](CCC(=O)N[C@H](CCC(=O)N[C@H](CCC(=O)NCCN1C(=O)CC(SC[C@H](N)C(=O)O)C1=O)C(=O)O)C(=O)O)C(=O)O)C(C)C)C(C)(C)C)C(C)(C)c1ccccc1 (stereo partly drawn) [Example MM7] | > 1000 | –
CNC(C(=O)N[C@H](C(=O)N(C)[C@H](/C=C(\C)C(=O)N[C@H](CCC(=O)NCCN1C(=O)CC(SC[C@H](N)C(=O)O)C1=O)C(=O)O)C(C)C)C(C)(C)C)C(C)(C)c1ccc(O)cc1 (stereo partly drawn) [Example MM33] | 36 | –
CN[C@H](C(=O)N[C@H](C(=O)N(C)[C@H](/C=C(\C)C(=O)N[C@H](CCC(=O)NCCN1C(=O)CC(SC[C@H](N)C(=O)O)C1=O)C(=O)O)C(C)C)C(C)(C)C)C(C)(C)c1cccc(OC)c1 (stereo partly drawn) [Example MM36] | > 1000 | –
CN[C@H](C(=O)N[C@H](C(=O)N(C)[C@H](/C=C(\C)C(=O)N[C@@H](CC(=O)NCCN1C(=O)CC(SC[C@H](N)C(=O)O)C1=O)C(=O)O)C(C)C)C(C)(C)C)C(C)(C)c1ccccc1 (stereo partly drawn) [Example MM10] | > 1000 | –
CN[C@H](C(=O)N[C@H](C(=O)N(C)[C@H](/C=C(\C)C(=O)N[C@H](CCC(=O)N[C@@H](CCCCNC(=O)CCCCCN1C(=O)CC(SC[C@H](N)C(=O)O)C1=O)C(=O)O)C(=O)O)C(C)C)C(C)(C)C)C(C)(C)c1cn(C)c2ccccc12 (stereo partly drawn) [Example MM2] | 459 | –
CN[C@H](C(=O)N[C@H](C(=O)N(C)[C@H](/C=C(\C)C(=O)N[C@@H](CCCCNC(=O)CCCN1C(=O)CC(SC[C@H](N)C(=O)O)C1=O)C(=O)O)C(C)C)C(C)(C)C)C(C)(C)c1cn(C)c2ccccc12 (stereo partly drawn) [Example MM27] | > 1000 | –
CN[C@H](C(=O)N[C@H](C(=O)N(C)[C@H](/C=C(\C)C(=O)N[C@H](CC(=O)NCCN1C(=O)CC(SC[C@H](N)C(=O)O)C1=O)C(=O)O)C(C)C)C(C)(C)C)C(C)(C)c1ccccc1 (stereo partly drawn) [Example MM9] | > 1000 | –
CN[C@H](C(=O)N[C@H](C(=O)N(C)[C@H](/C=C(\C)C(=O)N[C@@H](CCC(=O)O)C(=O)NCCN1C(=O)CC(SC[C@H](N)C(=O)O)C1=O)C(C)C)C(C)(C)C)C(C)(C)c1cn(C)c2ccccc12 (stereo partly drawn) [Example MM22] | 740 | –
CN[C@H](C(=O)N[C@H](C(=O)N(C)[C@H](/C=C(\C)C(=O)N[C@H](CCC(=O)NCCN1C(=O)CC(SC[C@H](N)C(=O)O)C1=O)C(=O)O)C(C)C)C(C)(C)C)C(C)(C)c1cccc(F)c1 (stereo partly drawn) [Example MM31] | > 1000 | –
CN[C@H](C(=O)N[C@H](C(=O)N(C)[C@H](/C=C(\C)C(=O)NCCCC[C@@H](NC(=O)CCCN1C(=O)CC(SC[C@H](N)C(=O)O)C1=O)C(=O)O)C(C)C)C(C)(C)C)C(C)(C)c1cn(C)c2ccccc12 (stereo partly drawn) [Example MM5] | > 1000 | –
CN[C@H](C(=O)N[C@H](C(=O)N(C)[C@H](/C=C(\C)C(=O)N[C@H](CCC(=O)N[C@H](CCC(=O)NCCN1C(=O)CC(SC[C@H](N)C(=O)O)C1=O)C(=O)O)C(=O)O)C(C)C)C(C)(C)C)C(C)(C)c1ccccc1 (stereo partly drawn) [Example MM6] | > 1000 | –
CN[C@H](C(=O)N[C@H](C(=O)N(C)[C@H](/C=C(\C)C(=O)N[C@H](CCC(=O)O)C(=O)NCCN1C(=O)CC(SC[C@H](N)C(=O)O)C1=O)C(C)C)C(C)(C)C)C(C)(C)c1cn(C)c2ccccc12 (stereo partly drawn) [Example MM25] | 555 | –
CN[C@H](C(=O)N[C@H](C(=O)N(C)[C@H](/C=C(\C)C(=O)N[C@@H](CC(=O)NCCN1C(=O)CC(SC[C@H](N)C(=O)O)C1=O)C(=O)O)C(C)C)C(C)(C)C)C(C)(C)c1cn(C)c2ccccc12 (stereo partly drawn) [Example MM19] | 303 | –
C/C(=C\[C@H](C(C)C)N(C)C(=O)[C@@H](NC(=O)[C@H]1CCCCN1C(=O)CCN1C(=O)CC(SC[C@H](N)C(=O)O)C1=O)C(C)(C)C)C(=O)N[C@H](CCC(=O)O)C(=O)O (stereo partly drawn) [Example MM29] | > 1000 | –
CN[C@H](C(=O)N[C@H](C(=O)N(C)[C@H](/C=C(\C)C(=O)N[C@H](CCC(=O)NCCN1C(=O)CC(SC[C@H](N)C(=O)O)C1=O)C(=O)O)C(C)C)C(C)(C)C)C(C)(C)c1cc(C)cc(C)c1 (stereo partly drawn) [Example MM37] | > 1000 | –
CN[C@H](C(=O)N[C@H](C(=O)N(C)[C@H](/C=C(\C)C(=O)N[C@H](CC(=O)O)C(=O)NCCN1C(=O)CC(SC[C@H](N)C(=O)O)C1=O)C(C)C)C(C)(C)C)C(C)(C)c1cn(C)c2ccccc12 (stereo partly drawn) [Example MM24] | 521 | –
CN[C@H](C(=O)N[C@H](C(=O)N(C)[C@H](/C=C(\C)C(=O)N[C@H](CCC(=O)NCCN1C(=O)CC(SC[C@H](N)C(=O)O)C1=O)C(=O)O)C(C)C)C(C)(C)C)C(C)(C)c1cccc(-c2ccccc2)c1 (stereo partly drawn) [Example MM39] | 118 | –
CN[C@H](C(=O)N[C@H](C(=O)N(C)[C@H](/C=C(\C)C(=O)N[C@H](CCC(=O)NCCN1C(=O)CC(SC[C@H](N)C(=O)O)C1=O)C(=O)O)C(C)C)C(C)(C)C)C(C)(C)c1ccc2ccccc2c1 (stereo partly drawn) [Example MM38] | 726 | –
CN[C@H](C(=O)N[C@H](C(=O)N(C)[C@H](/C=C(\C)C(=O)N[C@H](CC(=O)O)C(=O)NCCN1C(=O)CC(SC[C@H](N)C(=O)O)C1=O)C(C)C)C(C)(C)C)C(C)(C)c1ccccc1 (stereo partly drawn) [Example MM13] | > 1000 | –
CN[C@H](C(=O)N[C@H](C(=O)N(C)[C@H](/C=C(\C)C(=O)N[C@H](CCC(=O)N[C@H](CCC(=O)NCCN1C(=O)CC(SC[C@H](N)C(=O)O)C1=O)C(=O)O)C(=O)O)C(C)C)C(C)(C)C)C(C)(C)c1cn(C)c2ccccc12 (stereo partly drawn) [Example MM3] | 387 | –
CN[C@H](C(=O)N[C@H](C(=O)N(C)[C@H](/C=C(\C)C(=O)N[C@H](CC(=O)NCCN1C(=O)CC(SC[C@H](N)C(=O)O)C1=O)C(=O)O)C(C)C)C(C)(C)C)C(C)(C)c1cn(C)c2ccccc12 (stereo partly drawn) [Example MM20] | 337 | –
CNC(C(=O)N[C@H](C(=O)N(C)[C@H](/C=C(\C)C(=O)N[C@H](CCC(=O)O)C(=O)O)C(C)C)C(C)(C)C)C(C)(C)c1ccc(C(=O)NCCN2C(=O)CC(SC[C@H](N)C(=O)O)C2=O)cc1 (stereo partly drawn) [Example MM43] | > 1000 | –
CN[C@H](C(=O)N[C@H](C(=O)N(C)[C@H](/C=C(\C)C(=O)N[C@@H](CC(=O)O)C(=O)NCCN1C(=O)CC(SC[C@H](N)C(=O)O)C1=O)C(C)C)C(C)(C)C)C(C)(C)c1ccccc1 (stereo partly drawn) [Example MM14] | > 1000 | –
C/C(=C\[C@H](C(C)C)N(C)C(=O)[C@@H](NC(=O)[C@@H](NC(=O)CCCCCN1C(=O)CC(SC[C@H](N)C(=O)O)C1=O)C(C)(C)c1cn(C)c2ccccc12)C(C)(C)C)C(=O)N[C@H](CCC(=O)O)C(=O)O (stereo partly drawn) [Example MM44] | > 1000 | –
CN[C@H](C(=O)N[C@H](C(=O)N(C)[C@H](/C=C(\C)C(=O)N[C@H](CCC(=O)NCCCN1C(=O)CC(SC[C@H](N)C(=O)O)C1=O)C(=O)O)C(C)C)C(C)(C)C)C(C)(C)c1ccccc1 (stereo partly drawn) [Example MM16] | 867 | –
CN[C@H](C(=O)N[C@H](C(=O)N(C)[C@H](/C=C(\C)C(=O)NCCCCNC(=O)CCCCCN1C(=O)CC(SC[C@H](N)C(=O)O)C1=O)C(C)C)C(C)(C)C)C(C)(C)c1cn(C)c2ccccc12 (stereo partly drawn) [Comparative Example compound, reference compound] | – | strong cellular toxicity
